Measured values as given in patent EP0831877B1, “METABOLIC EFFECTS OF CERTAIN GLUTATHIONE ANALOGS” (TELIK, INC., priority 1995, dated 1996).
Where “and” joins values, the source holds several entries; their conditions need not be identical. Equal entries are not always repeated. Where two headings read alike, the source gives them in different places. Marks after values point to notes of the source that are not given here.

How the values were obtained:
[1] = system: CD34^+++ cells from human cord blood or bone marrow; assay: CD34+++ cell differentiation in the presence of cytokines; format: cell-based; conditions: 0.1 µM-10 µM TER199, erythropoietin 1 unit/ml, IL-3 100 unit/ml
HT4-1 tumors = assay: potentiation of melphalan toxicity in vivo, implanted HT4-1 tumors; set-up: species or system Male scid mice; conditions: group 5: 5 mg/kg melphalan + 60 mg/kg TER199, seven days; when control tumors reached 1500 mm^3
Method: Male scid mice were subcutaneously implanted with HT4-1 tumors from donor mice. HT4-1 is a subclone of HT-29, a human colon cancer. When tumors reached approximately 100 mm^3, the mice were randomized into six treatment groups and treated for seven days as follows: • 1. 5 mg/kg melphalan; • 2. 10 mg/kg ethacrynic acid; • 3. […] 5 mg/kg melphalan + 10 mg/kg ethacrynic acid; • 5.
The mice were monitored for weight changes and tumor volumes were determined by measurement with calipers. The tumor growth was monitored until the average tumor size reached 1500 mm^3 for all groups except melphalan with ethacrynic acid.
The results were computed in terms of the tumor volume in the drug treated mice as a percentage of control tumor volume (i.e., in the group administered vehicle alone). In group 1, administered melphalan alone, the tumors were approximately 75% of the volume of controls. […] For group 4 administered a combination of melphalan and ethacrynic acid, the volumes were approximately 35% of control. […] (The volume measurements were taken at the time control tumors reached 1500 mm^3.)

bone marrow GM-CFU [2] = assay: stimulation of bone marrow GM-CFU after administration to mice; format: in vivo, B6D2F1 mice; conditions: for most effective dose on bone marrow GM-CFU (Figure 4a): single treatment, harvest 24 hours
Method: In an illustrative assay three B6D2F1 mice were treated with various doses of benzyl PG intraperitoneally.
Mice in the control group were injected with water or saline. Bone marrow cells were harvested 24 hours after drug treatment and added to alpha minimum essential medium (alpha MEM) supplemented with methylcellulose (0.8% w/v), fetal bovine serum (20% v/v), deionized BSA (1% w/v), Pokeweed mitogen-stimulated spleen-cell conditioned medium (PWM-SCCM)^1 (10% v/v) and gentamycin (50 Tg/ml). One ml aliquots were plated (four replicate plates) and incubated for seven days at 37 °C. […] Spleens were removed aseptically from four male B6D2F1 mice enforced through a 200 Tm wire mesh screen to obtain a single cell suspension. Ten ml of the suspension (2-4 X 10^7 cell/ml was added to 90 ml alpha-MEM supplemented with 1% deionized BSA, 50 Tg/ml gentamicin, 0.3% freshly reconstituted pokeweed antigen, 10 µM 2-mercaptoethanol. The mixture was incubated for 5 days at […] in a 5% CO2 atmosphere and the result-ing conditioned medium was centrifuged at 800g for ten minutes and filtered through a 0.22 Tm filter. Aliquots were kept frozen at […] until use.
Bone marrow was harvested 24 hours after administering the compounds and GM-CFU levels measured as described above.

bone marrow GM-CFU [3] = system: bone marrow GM-CFU
Method: Bone marrows were harvested 24 hours after cisplatin administration.
Bone marrows were harvested 24 hours after administration of the second drug.

peripheral blood cells [4] = assay: peripheral blood response to 5-FU with i.p. TER199 in rats; format: in vivo, Sprague-Dawley derived rats; conditions: 5-FU 150 mg/kg i.p. day one
Method: Sprague-Dawley derived rats were treated according to the schedule below (Table 11).

[5] = in vitro half-life in human blood; format: in vitro ADME
[6] = system: normal BDF1 mouse bone marrow multipotential (CFU-GEMM) progenitor cells; assay: colony formation, mouse bone marrow CFU-GEMM; format: cell-based; conditions: EPO + 50 ng/ml SLF
Method: (§1) The effects are dose-dependent, usually in the range of 1.0 to 10.0 µM, and in most cases for cells stimulated by GM-CSF, G-CSF, M-CSF, Flt3/Flk-2 and Steel factor (stem cell factor/c-kit ligand). Of particular interest was the finding that TER199 enhances colony formation stimulated by combinations of cytokines. Additionally, the enhancing effect is more pronounced in human than in murine bone marrow.

[7] = system: VLB, a vinblastine-resistant variant of SKOV-3; assay: standard clonogenic assay, potentiation of drug toxicity, VLB; format: cell-based
Method: ; SKOV-3 an ovarian carcinoma, and VLB, a vinblastine-resistant variant of SKOV-3. Four chemotherapeutic drugs, chlorambucil, adriamycin, mitomycin C and doxorubicin were used as the toxic agents. In these assays, the cells were seeded at 300 cells/well in 2 ml of medium in 6-well plates in the presence of the compounds used in the invention as the diethyl esters. […]. After incubation for 1-2 hours to permit cells to attach, varying doses of the chemotherapeutic agents were added. At least three replicate wells were plated for each test condition and the plates were incubated for two weeks. Colonies were fixed in 95% ethanol and stained with crystal violet for colony counting. IC50 values were determined for the chemotherapeutic agent in the presence or absence of the compound used in the invention and dose modification factors were calculated by dividing the IC50 value of drug without the compound by the IC50 value of the drug with the compound.

[8] = system: HT4-1, a subclone of HT-29; assay: standard clonogenic assay, potentiation of drug toxicity, HT4-1
Method: Four chemotherapeutic drugs, chlorambucil, adriamycin, mitomycin C and doxorubicin were used as the toxic agents. In these assays, the cells were seeded at 300 cells/well in 2 ml of medium in 6-well plates in the presence of the compounds used in the invention as the diethyl esters. […] After incubation for 1-2 hours to permit cells to attach, varying doses of the chemotherapeutic agents were added. At least three replicate wells were plated for each test condition and the plates were incubated for two weeks. […] IC50 values were determined for the chemotherapeutic agent in the presence or absence of the compound used in the invention and dose modification factors were calculated by dividing the IC50 value of drug without the compound by the IC50 value of the drug with the compound.

bone marrow GM-CFU [9] = assay: cyclophosphamide-induced GM-CFU suppression in mice; format: in vivo
peripheral blood cells [10] = assay: effect on peripheral blood counts in rats; conditions: 90 mg/kg/day x 5, i.p.
Text: Rats were divided into two groups and each group was bled on alternating days. Mean total leukocyte, absolute lymphocyte and absolute neutrophil counts increased over the study period.

[11] = system: normal human bone marrow multipotential (CFU-GEMM) progenitor cells; assay: colony formation, human bone marrow CFU-GEMM; format: cell-based; conditions: EPO + 50 ng/ml SLF
Method: as §1

[12] = TER199 150 mg/kg p.o. 24 hours after cisplatin 20 mg/kg i.p.
[13] = TER199 60 mg/kg b.i.d. or 120 mg/kg q.d. i.p. day 2-10
[14] = HT4-1, TER199 at 25 µM, TER183 dose not given

CCOC(=O)[C@@H](N)CCC(=O)N[C@@H](CSCc1ccccc1)C(=O)N[C@@H](C(=O)OCC)c1ccccc1 [TER199, γE ethyl ester-C(Bz)-R-(-)-ϕG ethyl ester]
BFU-E (Figure 16) [1]: modest positive effects
CFU-GEMM colony formation (Figure 16) ([1]; steel factor 50 ng/ml): modest positive effects
tumor volume as a percentage of control tumor volume (HT4-1 tumors): approximately 55%
GM-CFU (bone marrow GM-CFU [2]; 90 mg/kg intraperitoneally, marrow harvested 24 hours later, controls about 140): approximately 275 colonies/10^4 nucleated cells
most effective dose on bone marrow GM-CFU (Figure 4a) (bone marrow GM-CFU [2]; IP administration): 60 to 90 mg/kg
effect on GM-CFU as a function of dosage, ester/amide forms (Figure 7) (bone marrow GM-CFU [2]; bone marrow harvested 24 hours after administering): significantly more effective than the mixed ester amide (TER300)
most effective dose on bone marrow GM-CFU (Figure 4a) (bone marrow GM-CFU [2]; oral administration): 120 to 180 mg/kg
time of maximum stimulation of GM-CFU (Figure 5) (bone marrow GM-CFU [2]; single 60 mg/kg dose IP on day 0): day 2 and day 5
GM-CFUs per femur (bone marrow GM-CFU [3]; TER199 60 mg/kg i.p. 24 hours before cisplatin 15 mg/kg i.p.): 62 % of control
GM-CFU (bone marrow GM-CFU [3]; [12]): 40%
increase in GM-CFU versus cisplatin alone (bone marrow GM-CFU [3]; [12]): 2.5 fold
GM-CFU (bone marrow GM-CFU [3]; TER199 150 mg/kg p.o. 24 hours before cisplatin 20 mg/kg i.p.): 52 % of control
platelet levels (Figure 14) (peripheral blood cells [4]; [13]): recovered to normal levels by study Day 12
white blood cell, neutrophil, and lymphocyte levels (Figure 14) (peripheral blood cells [4]; [13]): reached pretest levels sooner than the 5-FU-treated group
red blood cell counts (Figure 14) (peripheral blood cells [4]; TER199 i.p. day 2-10, compared to 5-FU control animals): observed decrease is reduced
half-life [5]: ~1.5 h
half-life, comparison of the three compounds [5]: approximately the same
% change from control ([6]; TER199 0.1 µM): 0%
Colony number ([6]; TER199 0.1 µM): 2±1
% change from control ([6]; TER199 10 µM): 0%
Colony number ([6]; TER199 10 µM): 2±1
DMF for Mitomycin C ([7]; 5 µM TER199): 0.82 (5 µM TER199)^c
DMF for Doxorubicin ([7]; TER199 at 25 µM): 2.50
DMF for Adriamycin ([7]; TER199 at 25 µM, TER183 dose not given): 2.50
survival of tumor cells treated with varying dosages of chlorambucil (Figure 1a) ([8]; 25 µM compound added to chlorambucil): survival rate is markedly diminished
DMF for Doxorubicin ([8]; HT4-1, TER199 at 25 µM): 1.20
DMF for Adriamycin [8, 14]: 1.2
DMF for Chlorambucil [8, 14]: 2.39
DMF for Mitomycin C [8, 14]: 1.03
survival of HT4-1 cells in the presence of the compound alone (Figure 1b) ([8]; HT4-1 cells): clearly toxic
cyclophosphamide-induced GM-CFU suppression (Figure 13, panel A) (bone marrow GM-CFU [9]; TER199 120 mg/kg, i.p. 24 hours after cyclophosphamide 200 mg/kg, i.p.): reduces GM-CFU suppression
cyclophosphamide-induced GM-CFU suppression (Figure 13, panel B) (bone marrow GM-CFU [9]; TER199 150 mg/kg, p.o.): similarly effective
deleterious effects on the animals (peripheral blood cells [10]): did not appear to have any deleterious effects
levels of circulating white blood cells (peripheral blood cells [10]): twofold increase
red blood cell or platelet counts (peripheral blood cells [10]; exception: mean decrease in platelet count on day 9): no significant change
Colony number ([11]; TER199 0.1 µM): 12±1 and 19±2
Colony number ([11]; TER199 1.0 µM): 17±2 and 23±2
% change from control ([11]; TER199 10 µM): 60% and 36%
Colony number ([11]; TER199 10 µM): 16±1 and 30±1
